Data from ChEMBL document CHEMBL3885881, “DrugMatrix”.

Species on record: Rattus norvegicus
Assay: DrugMatrix - Regimen: Daily Repeat
Assay type: toxicity, organism-based, Sprague-Dawley
Parameters: regimen Daily Repeat, gender Male, age 6-8 weeks
Conditions: in vivo, po, route oral GAVAGE, vehicle 100 % WATER; for ABSOLUTE BASOPHIL / ABSOLUTE EOSINOPHIL / ABSOLUTE LYMPHOCYTE / ABSOLUTE MONOCYTE / ABSOLUTE SEGMENTED NEUTROPHIL / BASOPHIL / EOSINOPHIL / ERYTHROCYTE COUNT / HEMATOCRIT / HEMOGLOBIN / LEUKOCYTE COUNT / LYMPHOCYTE / MEAN CORPUSCULAR HEMOGLOBIN / MEAN CORPUSCULAR HEMOGLOBIN CONCENTRATION / MEAN CORPUSCULAR VOLUME / MONOCYTE / NEUTROPHIL / NUCLEATED RED BLOOD CELLS / PLATELET COUNT: tissue Blood; for ALANINE AMINOTRANSFERASE / ALBUMIN / ALKALINE PHOSPHATASE / ASPARTATE AMINOTRANSFERASE / BLOOD UREA NITROGEN / CARBON DIOXIDE / CHLORIDE / CHOLESTEROL / CREATINE PHOSPHOKINASE / CREATININE / GLUCOSE / LACTATE DEHYDROGENASE / LIPASE / PHOSPHORUS / POTASSIUM / SODIUM / TOTAL BILIRUBIN / TOTAL PROTEIN / URIC ACID: tissue Plasma
[1] = 0 mg/kg, 72 h, dose level Control, time 3 day
[2] = 0 mg/kg, 120 h, dose level Control, time 5 day
[3] = 3 mg/kg, 72 h, dose level Low, time 3 day

CN(C)CC[C@@H](c1ccc(Cl)cc1)c1ccccn1 [DEXCHLORPHENIRAMINE]
ABSOLUTE BASOPHIL [1]: 0 CELLS/uL | ABSOLUTE EOSINOPHIL [1]: 58.83 CELLS/uL | ABSOLUTE LYMPHOCYTE [1]: 11823.5 CELLS/uL | ABSOLUTE MONOCYTE [1]: 169 CELLS/uL | ABSOLUTE SEGMENTED NEUTROPHIL [1]: 815.33 CELLS/uL | BASOPHIL [1]: 0% | EOSINOPHIL [1]: 0.5% | ERYTHROCYTE COUNT [1]: 5.52 x10E6/uL | HEMATOCRIT [1]: 35.77% | HEMOGLOBIN [1]: 14.28 G/DL | LEUKOCYTE COUNT [1]: 12.87 x10E3/uL | LYMPHOCYTE [1]: 91.67% | MEAN CORPUSCULAR HEMOGLOBIN [1]: 25.92 pg | MEAN CORPUSCULAR HEMOGLOBIN CONCENTRATION [1]: 39.95 G/DL | MEAN CORPUSCULAR VOLUME [1]: 64.85 fL | MONOCYTE [1]: 1.33% | NEUTROPHIL [1]: 6.5% | NUCLEATED RED BLOOD CELLS [1]: 0 /100WBC | PLATELET COUNT [1]: 1246.17 x10E3/uL | ALANINE AMINOTRANSFERASE [1]: 66 u/L | ALBUMIN [1]: 4.25 G/DL | ALKALINE PHOSPHATASE [1]: 416 u/L | ASPARTATE AMINOTRANSFERASE [1]: 106.17 u/L | BLOOD UREA NITROGEN [1]: 12.67 mg/dL | CARBON DIOXIDE [1]: 31.83 mmol/L | CHLORIDE [1]: 102.5 MEQ/L | CHOLESTEROL [1]: 69 mg/dL | CREATINE PHOSPHOKINASE [1]: 601.83 u/L | CREATININE [1]: 0.18 mg/dL | GLUCOSE [1]: 154.5 mg/dL | LACTATE DEHYDROGENASE [1]: 301.83 u/L | LIPASE [1]: 11.17 u/L | PHOSPHORUS [1]: 12.08 mg/dL | POTASSIUM [1]: 6.12 MEQ/L | SODIUM [1]: 145.2 MEQ/L | TOTAL BILIRUBIN [1]: 0.17 mg/dL | TOTAL PROTEIN [1]: 6.1 G/DL | URIC ACID [1]: 1.57 mg/dL | ABSOLUTE BASOPHIL [2]: 0 CELLS/uL | ABSOLUTE EOSINOPHIL [2]: 19.33 CELLS/uL | ABSOLUTE LYMPHOCYTE [2]: 12577.83 CELLS/uL | ABSOLUTE MONOCYTE [2]: 106.33 CELLS/uL | ABSOLUTE SEGMENTED NEUTROPHIL [2]: 896.5 CELLS/uL | BASOPHIL [2]: 0% | EOSINOPHIL [2]: 0.17% | ERYTHROCYTE COUNT [2]: 5.84 x10E6/uL | HEMATOCRIT [2]: 36.88% | HEMOGLOBIN [2]: 14.48 G/DL | LEUKOCYTE COUNT [2]: 13.6 x10E3/uL | LYMPHOCYTE [2]: 92.17% | MEAN CORPUSCULAR HEMOGLOBIN [2]: 24.85 pg | MEAN CORPUSCULAR HEMOGLOBIN CONCENTRATION [2]: 39.3 G/DL | MEAN CORPUSCULAR VOLUME [2]: 63.23 fL | MONOCYTE [2]: 0.83% | NEUTROPHIL [2]: 6.83% | NUCLEATED RED BLOOD CELLS [2]: 0 /100WBC | PLATELET COUNT [2]: 1223.5 x10E3/uL | ALANINE AMINOTRANSFERASE [2]: 55.33 u/L | ALBUMIN [2]: 4.08 G/DL | ALKALINE PHOSPHATASE [2]: 355.5 u/L | ASPARTATE AMINOTRANSFERASE [2]: 87.67 u/L | BLOOD UREA NITROGEN [2]: 15.33 mg/dL | CARBON DIOXIDE [2]: 33.83 mmol/L | CHLORIDE [2]: 99.67 MEQ/L | CHOLESTEROL [2]: 72.17 mg/dL | CREATINE PHOSPHOKINASE [2]: 268.33 u/L | CREATININE [2]: 0.15 mg/dL | GLUCOSE [2]: 152.5 mg/dL | LACTATE DEHYDROGENASE [2]: 212.67 u/L | LIPASE [2]: 10.83 u/L | PHOSPHORUS [2]: 11.65 mg/dL | POTASSIUM [2]: 6.73 MEQ/L | SODIUM [2]: 142.43 MEQ/L | TOTAL BILIRUBIN [2]: 0.23 mg/dL | TOTAL PROTEIN [2]: 6.07 G/DL | URIC ACID [2]: 1.7 mg/dL | ABSOLUTE BASOPHIL [3]: 0 CELLS/uL | ABSOLUTE EOSINOPHIL [3]: 76 CELLS/uL | ABSOLUTE LYMPHOCYTE [3]: 10621.67 CELLS/uL | ABSOLUTE MONOCYTE [3]: 75 CELLS/uL | ABSOLUTE SEGMENTED NEUTROPHIL [3]: 960.67 CELLS/uL | BASOPHIL [3]: 0% | EOSINOPHIL [3]: 0.67% | ERYTHROCYTE COUNT [3]: 5.43 x10E6/uL | HEMATOCRIT [3]: 35.8% | HEMOGLOBIN [3]: 14.27 G/DL | LEUKOCYTE COUNT [3]: 11.73 x10E3/uL | LYMPHOCYTE [3]: 90.33% | MEAN CORPUSCULAR HEMOGLOBIN [3]: 26.27 pg | MEAN CORPUSCULAR HEMOGLOBIN CONCENTRATION [3]: 39.83 G/DL | MEAN CORPUSCULAR VOLUME [3]: 65.9 fL | MONOCYTE [3]: 0.67% | NEUTROPHIL [3]: 8.33% | NUCLEATED RED BLOOD CELLS [3]: 0 /100WBC | PLATELET COUNT [3]: 1343.33 x10E3/uL | ALANINE AMINOTRANSFERASE [3]: 45.67 u/L | ALBUMIN [3]: 4.17 G/DL | ALKALINE PHOSPHATASE [3]: 363.67 u/L | ASPARTATE AMINOTRANSFERASE [3]: 81 u/L | BLOOD UREA NITROGEN [3]: 12.67 mg/dL | CARBON DIOXIDE [3]: 31.67 mmol/L | CHLORIDE [3]: 102.33 MEQ/L | CHOLESTEROL [3]: 64 mg/dL | CREATINE PHOSPHOKINASE [3]: 265.33 u/L | CREATININE [3]: 0.26 mg/dL | GLUCOSE [3]: 152.33 mg/dL | LACTATE DEHYDROGENASE [3]: 198 u/L | LIPASE [3]: 13.33 u/L | PHOSPHORUS [3]: 13.23 mg/dL | POTASSIUM [3]: 6.5 MEQ/L | SODIUM [3]: 145.03 MEQ/L | TOTAL BILIRUBIN [3]: 0.13 mg/dL | TOTAL PROTEIN [3]: 5.87 G/DL | URIC ACID [3]: 1.57 mg/dL
